# Measured values: patent publication US11866430B2, “Naphthyridinone compounds useful as T cell activators” (priority 2018, dated 2024)
# Assays:
# [1] = biological target: T1, human DGKα (Homo sapiens (Human), UniProt P23743); test: biochemical; settings: detergent/lipid micelle substrate; read-out: DGKα IC50
# How it was run: (§1)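 Enzymes were baculovirus/Sf9 full-length human DGKα or DGKζ with His tag. The substrate was PS/DAG in octyl glucoside micelles, in MOPS pH 7.5 buffer with NaCl, MgCl2, CaCl2 and DTT.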
# [2] = tested on: Jurkat AP1-luciferase Reporter; test: DGK AP1-Reporter Assay; format: cell-based; settings: Homo sapiens, Jurkat, read-out: API-Luciferase Reporter IC50, Table 3
# Experimental: The Jurkat AP1-luciferase Reporter was generated using the Cignal Lenti AP1 Reporter (luc) Kit from SABiosciences (CLS-011L).
# The sample size was 30 nl per well; and one destination plate per source plate. The cell suspensions were prepared by transferring 40 mL cells (2×20 mL) to clean 50 mL conical tubes. The cells were concentrated by centrifugation (1200 rpm; 5 mins; ambient temperature). […] The cell plates were incubated for 20 minutes at 37° C., and 5% CO2.
# During the incubation, anti-CD3 antibody (αCD3) solutions were prepared by mixing 3 μl αCD3 (1.3 mg/mL) with 10 mL medium [final conc=0.4 μg/mL]. Next, 1.5 μl αCD3 (1.3 mg/mL) was mixed with 0.5 mL medium [final conc=4 μg/mL]. After 20 minutes, 10 μl medium was added to all wells in column 1, wells A to M, and 10 μl αCD3 (4 μg/mL) per well was added in column 1, rows N to P for reference. Then using a multi-channel pipette, 10 μl αCD3 (0.4 μg/mL) per well was added. The αCD3 stimulated +/− compound-treated cells were incubated at 37° C., 5% CO2 for 6 hours.
# During this incubation period. Steady-Glo (Promega E2520) reagent was slowly thawed on to ambient temperature. Next, 20 μl Steady-Glo reagent per well was added using a multi-drop Combi-dispenser. Bubbles were removed by centrifugation (2000 rpm, ambient temperature, 10 sees). The cells were incubated at room temperature for 5 minutes. Samples were characterized by measuring the Relative Light Units (RLU) with an using Envision Plate Reader Instrument on a luminescence protocol.
# [3] = biological target: T2, human DGKζ (Homo sapiens (Human), UniProt Q13574); test: DGKζ assay (detergent/lipid micelle substrate); format: biochemical; settings: detergent/lipid micelle substrate; read-out: DGKζ IC50
# T2 sequence (Q13574 other isoform, or with tags, fused parts or gaps): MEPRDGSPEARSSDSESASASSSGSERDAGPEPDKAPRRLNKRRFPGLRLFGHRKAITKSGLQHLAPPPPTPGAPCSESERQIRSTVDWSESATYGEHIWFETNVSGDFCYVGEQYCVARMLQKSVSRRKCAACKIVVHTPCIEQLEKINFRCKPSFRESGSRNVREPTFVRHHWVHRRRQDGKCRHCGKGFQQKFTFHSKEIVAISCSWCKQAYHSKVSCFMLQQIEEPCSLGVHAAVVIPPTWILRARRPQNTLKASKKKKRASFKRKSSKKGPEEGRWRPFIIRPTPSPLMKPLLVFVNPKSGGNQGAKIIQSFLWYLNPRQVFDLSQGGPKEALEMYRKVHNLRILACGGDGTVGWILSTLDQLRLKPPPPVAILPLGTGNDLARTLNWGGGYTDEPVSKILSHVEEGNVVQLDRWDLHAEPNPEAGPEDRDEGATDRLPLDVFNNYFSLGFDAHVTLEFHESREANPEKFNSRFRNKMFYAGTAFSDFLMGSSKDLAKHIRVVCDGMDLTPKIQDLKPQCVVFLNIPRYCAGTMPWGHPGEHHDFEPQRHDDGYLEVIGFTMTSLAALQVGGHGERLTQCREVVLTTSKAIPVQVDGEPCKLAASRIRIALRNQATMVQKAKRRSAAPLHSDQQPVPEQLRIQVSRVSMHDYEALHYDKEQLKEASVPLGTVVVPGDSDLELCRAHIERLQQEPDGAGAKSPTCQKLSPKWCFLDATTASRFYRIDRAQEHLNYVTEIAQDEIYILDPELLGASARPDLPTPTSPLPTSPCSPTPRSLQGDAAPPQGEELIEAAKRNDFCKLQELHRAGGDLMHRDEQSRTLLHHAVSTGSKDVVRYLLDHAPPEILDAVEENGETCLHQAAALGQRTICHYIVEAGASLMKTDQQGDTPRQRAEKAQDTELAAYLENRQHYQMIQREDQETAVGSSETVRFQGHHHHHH
# How it was run: as §1
# [4] = biological target: T1, human DGKα; test: DGKα LIPGLO assay (extruded liposome substrate); format: biochemical
# How it was run: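 Human full-length DGKα, His-tagged and produced in Sf9 cells, assayed at 20 nM (4× stock) on extruded liposomes of PS, 0.25 mM DAG and 2.75 mM PC, preincubated 10 min. Reaction started with 300 μM ATP (stock) and ran 1 h in MOPS pH 7.5/MgCl2/CaCl2/DTT buffer.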
# [5] = biological target: T2, human DGKζ; test: DGKζ LIPGLO assay (extruded liposome substrate); format: biochemical; settings: extruded liposome substrate; read-out: DGKζ LIPGLO IC50
# How it was run: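 Recombinant DGKζ (Sf9-expressed, Ni/SEC/SP-purified) preincubated 10 min with extruded 100 nm PC/DAG/PS liposomes in 50 mM MOPS pH 7.5, 100 mM NaCl, 10 mM MgCl2, 1 μM CaCl2, 1 mM DTT. Started with 300 uM ATP solution (stock, pre-addition); 1 hr reaction. ADP-Glo luminescence; IC50 from 11 concentrations.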
# [6] = tested on: pre-activated CD4 T cells and Raji cells; test: Raji CD4 T Cell IL2 Assay; format: cell-based; settings: Homo sapiens, Raji
# T1 sequence (P23743 other isoform, or with tags, fused parts or gaps): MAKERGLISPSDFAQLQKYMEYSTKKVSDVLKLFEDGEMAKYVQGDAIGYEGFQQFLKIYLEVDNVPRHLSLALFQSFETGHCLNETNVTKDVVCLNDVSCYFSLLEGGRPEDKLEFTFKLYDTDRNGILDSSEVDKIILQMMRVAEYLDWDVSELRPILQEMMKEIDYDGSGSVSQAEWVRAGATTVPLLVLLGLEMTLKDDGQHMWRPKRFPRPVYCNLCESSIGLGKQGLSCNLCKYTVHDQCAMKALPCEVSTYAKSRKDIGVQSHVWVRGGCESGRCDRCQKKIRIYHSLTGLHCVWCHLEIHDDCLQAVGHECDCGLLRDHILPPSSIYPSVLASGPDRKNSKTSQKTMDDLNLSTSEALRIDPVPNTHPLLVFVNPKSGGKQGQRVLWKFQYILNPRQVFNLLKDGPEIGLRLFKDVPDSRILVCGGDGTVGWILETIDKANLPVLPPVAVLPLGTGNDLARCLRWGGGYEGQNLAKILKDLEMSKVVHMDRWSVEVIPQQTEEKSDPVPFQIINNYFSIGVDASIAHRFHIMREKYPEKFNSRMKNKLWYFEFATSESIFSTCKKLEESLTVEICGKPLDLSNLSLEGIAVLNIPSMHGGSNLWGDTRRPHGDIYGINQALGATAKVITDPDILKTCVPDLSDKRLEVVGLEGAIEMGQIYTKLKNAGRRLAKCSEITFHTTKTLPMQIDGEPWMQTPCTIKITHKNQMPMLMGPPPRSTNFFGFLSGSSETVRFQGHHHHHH
Structure (SMILES),IC50 [1] [nM],IC50 [2] [nM],IC50 [3] [nM],IC50 [4] [nM],IC50 [5] [nM],IC50 [6] [nM]
"C#CCn1c(=O)c([N+](=O)[O-])c(N2CCN(C(C)c3ccc(F)cc3)CC2)c2nc(C#N)ccc21 (racemic) [Example 135, 8-(4-(1-(4-fluorophenyl)ethyl)piperazin-1-yl)-7-nitro-6-oxo-5-(prop-2-yn-1-yl)-5,6-dihydro-1,5-naphthyridine-2-carbonitrile]",180,340,1300,,,
"Cn1c(=O)c(C#N)c(N2CCN(Cc3ccccc3NS(C)(=O)=O)CC2)c2nc(Br)ccc21 [Example 212, N-(2-((4-(6-bromo-3-cyano-1-methyl-2-oxo-1,2-dihydro-1,5-naphthyridin-4-yl)piperazin-1-yl)methyl)phenyl)methanesulfonamide]",2200,1140,> 240000,,,
"CC(c1ccc(F)cc1)N1CCN(c2c(C#N)c(=O)n(C)c3ccc(Br)nc23)CC1 (racemic) [Example 22, 6-bromo-4-{4-[1-(4-fluorophenyl)ethyl]piperazin-1-yl}-1-methyl-2-oxo-1,2-dihydro-1,5-naphthyridine-3-carbonitrile]",70,1530,> 81000,,,
"COCCn1c(=O)c([N+](=O)[O-])c(N2CCN(C(C)c3ccc(F)cc3)CC2)c2nc(C#N)ccc21 (racemic) [Example 148, 8-(4-(1-(4-fluorophenyl)ethyl)piperazin-1-yl)-5-(2-methoxyethyl)-7-nitro-6-oxo-5,6-dihydro-1,5-naphthyridine-2-carbonitrile]",15000,870,28000,,,
"C#CCn1c(=O)c([N+](=O)[O-])c(N2CCN(C(c3ccc(F)cc3)c3ccccc3OC)CC2)c2nc(C#N)ccc21 (single isomer, unassigned) [Example 131, 8-(4-((4-fluorophenyl)(2-methoxyphenyl)methyl)piperazin-1-yl)-7-nitro-6-oxo-5-(prop-2-yn-1-yl)-5,6-dihydro-1,5-naphthyridine-2-carbonitrile]",11000,500,370,,,
"COc1cc(F)ccc1C(c1ccc(F)cc1)N1CCN(c2c(C#N)c(=O)n(C)c3ccc(Br)nc23)CC1 (racemic) [Example 15, 6-bromo-4-{4-[(4-fluoro-2-methoxyphenyl)(4-fluorophenyl)methyl]piperazin-1-yl}-1-methyl-2-oxo-1,2-dihydro-1,5-naphthyridine-3-carbonitrile]",550,1820,58000,,,
"Cn1c(=O)c([N+](=O)[O-])c(N2CCN(C(CO)c3ccc(F)cc3)CC2)c2nc(C#N)ccc21 (centres unmarked) [Example 37, 8-{4-[1-(4-fluorophenyl)-2-hydroxyethyl]piperazin-1-yl}-5-methyl-7-nitro-6-oxo-5,6-dihydro-1,5-naphthyridine-2-carbonitrile]",1800,2830,38000,,,
"C#CCn1c(=O)c([N+](=O)[O-])c(N2CCN(C(CC)c3ccc(F)cc3)CC2)c2nc(C#N)ccc21 (racemic) [Example 139, 8-{4-[1-(4-fluorophenyl)propyl]piperazin-1-yl}-7-nitro-6-oxo-5-(prop-2-yn-1-yl)-5,6-dihydro-1,5-naphthyridine-2-carbonitrile]",410,130,910,,,
"Cn1c(=O)c(C#N)c(N2CCN(Cc3ccccc3N)CC2)c2nc(Br)ccc21 [Example 211, 4-(4-(2-aminobenzyl)piperazin-1-yl)-6-bromo-1-methyl-2-oxo-1,2-dihydro-1,5-naphthyridine-3-carbonitrile]",250,520,> 240000,,,
"Cn1c(=O)c(C#N)c(N2CCN(Cc3cccc(C(C)(C)C)c3O)CC2)c2nc(Cl)ccc21 [Example 384, 4-{4-[(3-tert-butyl-2-hydroxyphenyl)methyl]piperazin-1-yl}-6-chloro-1-methyl-2-oxo-1,2-dihydro-1,5-naphthyridine-3-carbonitrile]",,180,,,,
"CC(c1ccc(F)cc1)N1CCN(c2c([N+](=O)[O-])c(=O)n(C)c3ccc(C#N)nc23)CC1 (centres unmarked) [Example 43, 8-(4-(1-(4-fluorophenyl)ethyl)piperazin-1-yl)-5-methyl-7-nitro-6-oxo-5,6-dihydro-1,5-naphthyridine-2-carbonitrile]",37,400,6300,,,
"Cn1c(=O)c(C#N)c(N2CCN(Cc3cccc4c3NC(=O)C4)CC2)c2nc(Br)ccc21 [Example 374, 6-bromo-1-methyl-2-oxo-4-{4-[(2-oxo-2,3-dihydro-1H-indol-7-yl)methyl]piperazin-1-yl}-1,2-dihydro-1,5-naphthyridine-3-carbonitrile]",,7930,,,,
"Cn1c(=O)c(C#N)c(N2CCN(Cc3ccc(C#N)cc3F)CC2)c2nc(Cl)ccc21 [Example 379, 6-chloro-4-{4-[(4-cyano-2-fluorophenyl)methyl]piperazin-1-yl}-1-methyl-2-oxo-1,2-dihydro-1,5-naphthyridine-3-carbonitrile]",380,7840,> 240000,,,
"COCCn1c(=O)c(C#N)c(N2CCN(C(c3ccc(F)cc3)c3ccc(F)cc3)CC2)c2nc(Br)ccc21 [Example 113, 4-(4-(bis(4-fluorophenyl)methyl)piperazin-1-yl)-6-bromo-1-(2-methoxyethyl)-2-oxo-1,2-dihydro-1,5-naphthyridine-3-carbonitrile]",,580,,,,
"Cn1c(=O)c(C#N)c(N2CCN(C(c3ccc(F)cc3)c3ccc(F)cc3)CC2)c2nc(Cl)ccc21 [Example 218, 4-(4-(bis(4-fluorophenyl)methyl)piperazin-1-yl)-6-chloro-1-methyl-2-oxo-1,2-dihydro-1,5-naphthyridine-3-carbonitrile]",690,,> 81000,1500,5100,93
"Cc1cccc(CN2CCN(c3c(C#N)c(=O)n(C)c4ccc(Cl)nc34)CC2)c1F [Example 281, 6-chloro-4-{4-[(2-fluoro-3-methylphenyl)methyl]piperazin-1-yl}-1-methyl-2-oxo-1,2-dihydro-1,5-naphthyridine-3-carbonitrile]",390,,49000,2000,9900,93
"Cn1c(=O)c(C#N)c(N2CCN(Cc3cccc4c3NC(=O)C4)CC2)c2nc(Cl)ccc21 [Example 376, 6-chloro-1-methyl-2-oxo-4-{4-[(2-oxo-2,3-dihydro-1H-indol-7-yl)methyl]piperazin-1-yl}-1,2-dihydro-1,5-naphthyridine-3-carbonitrile]",,10000,,,,
"CCn1ccc2c(CN3CCN(c4c(C#N)c(=O)n(C)c5ccc(Br)nc45)CC3)cccc21 [Example 225, 6-bromo-4-(4-((1-ethyl-1H-indol-4-yl)methyl)piperazin-1-yl)-1-methyl-2-oxo-1,2-dihydro-1,5-naphthyridine-3-carbonitrile]",390,,14000,820,1300,70
"Cn1c(=O)c(C#N)c(N2CCN(Cc3ccc(F)cc3O)CC2)c2nc(Cl)ccc21 [Example 193, 6-chloro-4-(4-(4-fluoro-2-hydroxybenzyl)piperazin-1-yl)-1-methyl-2-oxo-1,2-dihydro-1,5-naphthyridine-3-carbonitrile]",220,,> 240000,89,6500,130
"Cn1c(=O)c(C#N)c(N2CCN(Cc3cccc4ccccc34)CC2)c2nc(Cl)ccc21 [Example 221, 6-chloro-1-methyl-4-(4-(naphthalen-1-ylmethyl)piperazin-1-yl)-2-oxo-1,2-dihydro-1,5-naphthyridine-3-carbonitrile]",740,,> 240000,3400,18000,330
